Measurements: US20170029813A1, “METHODS AND SYSTEMS FOR DROPLET TAGGING AND AMPLIFICATION” (President and Fellows of Harvard College, priority 2014, published 2017)

How the values were obtained:
[1] = system: K562 chronic myeloid leukemia cells; experiment: Apoptosis detection with fluorogenic caspase substrate Caspalux6-J1D2 in bulk and in drops; format: cell-based; conditions: K562 cells treated with Imatinib for 24 hours; both bulk and drop experiment (FIG. 7)
Procedure: Single K562 chronic myeloid leukemia cells were introduced to the drug combinations by picoinjecting a cell suspension to the merged drops at a concentration known to obtain a Poisson distribution with rate λ (lambda)=0.1, and incubated at 37° C. for 24 hours.
By adding a fluorogenic substrate, caspalux6-J1D2, which is specifically cleaved by increased caspase 3 and caspase 3-like activities during apoptosis, apoptosis of cells in drops can be determined.

[2] = system: Leukemia K562 cells; experiment: Apoptosis and necrosis by Annexin V / propidium iodide staining of cells in agarose gel particles; format: cell-based; conditions: 48 hr incubation, drops containing 20 micrograms/mL Imatinib mixed at a 1:1 ratio (10 micrograms/mL per FIG. 12), PI and Annexin V staining
Procedure: In this example, first cells are mixed with molten low melt agarose at 37° C. and together incorporated into droplets. […] An UltraPure low melting point agarose is used in this experiment, which melts at 65.5° C., remains fluid at 37° C. and becomes solid rapidly at temperatures below 25° C. […] In this example, agarose powder was dissolved into PBS and autoclaved to prepare a sterilized 2% (w/v) agarose solution. Cells were counted and suspend in a DMEM culture media with 40% fetal bovine serum, and the cell suspension was mixed with agarose solution at 1:1 volume ratio. The mixture of cells and agarose gel was flowed into the sample inlet of a microfluidic drop-making device, and HFE7500 oil with 2% surfactant was flowed into the oil inlet to cause the cell-containing agarose gel to produce 80 micrometer drops. The generated gel-in-oil drops were collected into a pre-cooled eppendorf tube in an ice bath.
The drops containing agarose gel particles were collected into a pre-cooled eppendorf tube, after which the injected cell-containing agarose gel remained spherical. In the following steps, the agarose gel particles were injected into the drop containing drug combination and drug barcodes, followed by incubation, destabilization, staining, washing and FACS to obtain the gel particles containing positive cells. […]

## Cc1ccc(NC(=O)c2ccc(CN3CCN(C)CC3)cc2)cc1Nc1nccc(-c2cccnc2)n1 [Imatinib]
[1]
  apoptotic signal (Caspalux6-J1D2 fluorescence): clear apoptotic signal
[2]
  apoptotic and necrotic cells: About 70%
